Data as given in US8173384B2, “Methods for analyzing or processing a heparin sample” (Massachusetts Institute of Technology, priority 2000, dated 2012).
Like-named read-outs stand apart in the source and are kept apart here.

Assays:
factor Xa (FXa) = test: Anti-Xa assay (factor Xa generation inhibition; factor Xa from serum or purified); assay type: biochemical
Description: (§1) Biological Measurements of Decasaccharide Activity. In vitro anticoagulant activity was determined as described previously (Hoppensteadt, D. A., Jeske, W. P., Walenga, J. M., Fu, K., Yang, L. H., Ing, T. S., Herbert, J. M. & Fareed, J. (1999) Thromb Res 96, 115-24 and Dietrich, C. P., Paiva, J. F., Castro, R. A., Chavante, S. F., Jeske, W., Fareed, J., Gorin, P. A., Mendes, A. & Nader, H. B. (1999) Biochim Biophys Acta 1428, 273-83), according to the United States Pharmacopoeia. Thrombin (FIIa) and factor Xa (FXa) generation inhibition assays were completed essentially as described. Briefly, either AT-10 decasaccharide, Enoxaparin LMWH or the synthetic AT-III binding pentasaccharide (Penta 1) used in this study was dissolved in sterile saline at the designated concentrations. To this sample was added an equal volume of fibrinogen deficient plasma diluted 1:8 in 100 mM Tris-HCl (pH 8.5). In a separate sample, the same concentration of heparin oligosaccharide and actin was added in a 1:1 ratio to either Spectrozyme TH or FXa. In this manner, the intrinsic IIa and Xa generation was measured. In addition, to account for inhibition of thrombin and extrinsic generation of FXa, thromboplastin C was diluted 1:6 with either Spectrozyme TH or FXa. For all samples, the optical density was measured at 405 nm and results are expressed as a % inhibition compared to a unsupplemented saline control. […]

human AT-III [1] = target: T1, human AT-III (Homo sapiens, UniProt P01008); test: Equilibrium fluorescence titration of AT-III with saccharide; assay type: binding
Description: Equilibrium Fluorescence Titration Experiments. Titrations of human AT-III with either AT-10 decasaccharide or heparin were completed at 25° C. using a Fluorolog 2 machine (Spex Instruments) (Meagher, J. L., Beechem, J. M., Olson, S. T. & Gettins, P. G. (1998) J Biol Chem 273, 23283-9 and Desai, U. R., Petitou, M., Bjork, I. & Olson, S. T. (1998) J Biol Chem 273, 7478-87). […] With the pH 7.4 buffer, sodium chloride was added to a final concentration of 100 mM.
Fluorescence emission spectra were collected from 300-400 nm with a 280 nm excitation wavelength and a 5 s integration time. Briefly, the titration experiments were conducted as follows—aliquots of either decasaccharide or heparin was added to a 1 μm solution of AT-III, the solution was allowed to come to equilibrium for one minute, and an emission spectrum collected. Addition of sequential saccharide aliquots and fluorescence signal was adjusted to account for protein dilution.

Thrombin (FIIa) = target: T2, Thrombin (FIIa) (Homo sapiens, UniProt P00734); test: Anti-IIa assay (thrombin generation inhibition); assay type: biochemical
T2 construct: purchased Ortho Diagnostic Systems, Inc. (Raritan, N.J.) Fibrindex
Description: as §1

heparinase II = target: T3, heparinase II (Pedobacter heparinus, UniProt C6XZB6); test: Exhaustive heparinase II digestion, products by MALDI-MS; assay type: biochemical, Flavobacterium heparinum
T3 construct: made in house
T3 sequence (C6XZB6 26-772): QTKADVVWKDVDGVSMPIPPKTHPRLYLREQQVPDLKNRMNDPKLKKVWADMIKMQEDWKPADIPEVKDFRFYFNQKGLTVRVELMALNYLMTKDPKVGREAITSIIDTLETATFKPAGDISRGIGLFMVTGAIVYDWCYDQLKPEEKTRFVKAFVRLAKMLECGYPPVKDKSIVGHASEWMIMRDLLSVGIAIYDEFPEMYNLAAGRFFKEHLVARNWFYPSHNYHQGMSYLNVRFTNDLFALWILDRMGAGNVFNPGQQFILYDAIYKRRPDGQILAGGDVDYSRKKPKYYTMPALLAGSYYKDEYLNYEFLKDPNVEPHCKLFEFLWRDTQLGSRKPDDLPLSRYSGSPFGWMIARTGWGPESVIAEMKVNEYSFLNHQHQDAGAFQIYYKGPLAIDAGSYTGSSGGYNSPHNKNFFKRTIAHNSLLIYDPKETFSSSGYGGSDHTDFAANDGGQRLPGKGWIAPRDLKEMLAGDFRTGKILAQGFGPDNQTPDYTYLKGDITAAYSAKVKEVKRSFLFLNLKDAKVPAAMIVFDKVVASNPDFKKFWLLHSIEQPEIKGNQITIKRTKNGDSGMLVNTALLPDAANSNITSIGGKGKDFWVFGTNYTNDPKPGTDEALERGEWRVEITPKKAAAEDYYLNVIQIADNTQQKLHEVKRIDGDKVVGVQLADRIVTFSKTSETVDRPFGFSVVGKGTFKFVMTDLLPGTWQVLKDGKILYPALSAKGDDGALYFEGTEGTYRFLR
Description: (§2) Digests. Heparinase I digests were completed as described (Venkataraman, G., Shriver, Z., Raman, R. & Sasisekharan, R. (1999) Science 286, 537-42 and Rhomberg, A. J., Ernst, S., Sasisekharan, R. & Biemann, K. (1998) Proc Natl Acad Sci USA 95, 4176-81). Heparinase II or III reactions were completed in essentially the same way at room temperature in 10 μM ovalbumin, 1 μM dextran sulfate, and 10 mM ethylenediamine, pH 7.0. Short digestions were completed with 50 nM enzyme for 10 minutes while exhaustive digests were completed with 200 nM enzyme overnight. Mass spectra were collected using parameters as outlined above (see also Shriver, Z., Raman, R., Venkataraman, G., Drummond, K., Turnbull, J., Toida, T., Linhardt, R., Biemann, K. & Sasisekharan, R. (2000) Proc Natl Acad Sci USA, 2000 Sep. 12; 97(19):10359-64) and calibrated externally by using signals for protonated (RG)19R and its complex with a nitrous acid-derived hexasaccharide of the sequence I2SHNS,6S I2SHNS,6S I2SMan6S
(§3) Enzymatic Action of the Heparinases Towards the AT-III Binding Site: Previously, we investigated the substrate specificity of heparinases I and II towards AT-10 (Rhomberg, A. J., Shriver, Z., Biemann, K. & Sasisekharan, R. (1998) Proc Natl Acad Sci USA 95, 12232-7 and Ernst, S., Rhomberg, A. J., Biemann, K. & Sasisekharan, R. (1998) Proc Natl Acad Sci USA 95, 4182-7). These studies, however, were carried out assuming a published structure (Toida, T., Hileman, R. E., Smith, A. E., Vlahova, P. I. & Linhardt, R. J. (1996) J Biol Chem 271, 32040-7). In light of the newly determined structure of AT-10 described herein (see also Shriver, Z., Raman, R., Venkataraman, G., Drummond, K., Turnbull, J., Toida, T., Linhardt, R., Biemann, K. & Sasisekharan, R. (2000) Proc Natl Acad Sci USA, 2000 Sep. 12; 97(19):10359-64), we reexamined the enzymatic action of heparinases I, II, and III towards oligosaccharides containing a 3-O sulfate that is critical for high affinity AT-III binding. For these studies, we used three oligosaccharides, two pentasaccharides (Penta 1 and Penta 2, FIG. 5) and a hexasaccharide (Hexa 1, FIG. 5). […]
(§4) Compositional Analysis: UFH was subjected to exhaustive depolymerization with an enzyme cocktail made up of Heparinase I, Heparinase II, and Heparinase III. […] The samples were analyzed by CE in reverse polarity with a running buffer of 50 mM tris/phosphate, 10 μM dextran sulfate, pH 2.5. […] Each sample was digested in duplicate and the experiment was repeated twice for each sample, resulting in four readings per sample. All of the 8 resulting peaks were collected, and the purity of the collected samples was checked by re-injecting into CE, and their mass was measured by offline MALDI Mass Spectrometry. […]

heparinase I = target: T4, heparinase I (Pedobacter heparinus, UniProt Q05819); test: Exhaustive heparinase I digestion, products by MALDI-MS; assay type: biochemical, Flavobacterium heparinum
T4 construct: made in house
T4 sequence (Q05819 22-384): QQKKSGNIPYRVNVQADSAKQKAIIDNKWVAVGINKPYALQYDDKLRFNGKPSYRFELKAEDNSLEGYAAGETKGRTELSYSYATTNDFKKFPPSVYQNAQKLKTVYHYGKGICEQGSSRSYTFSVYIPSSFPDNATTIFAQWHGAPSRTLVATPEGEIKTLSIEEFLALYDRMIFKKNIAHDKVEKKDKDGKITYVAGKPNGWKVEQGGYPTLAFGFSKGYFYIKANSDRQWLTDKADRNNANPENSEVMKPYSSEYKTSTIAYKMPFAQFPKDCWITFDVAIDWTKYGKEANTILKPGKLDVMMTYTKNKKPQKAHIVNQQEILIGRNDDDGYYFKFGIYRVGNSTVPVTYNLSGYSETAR
Description: as §2, §3, §4

heparinase III = target: T5, heparinase III (Pedobacter heparinus, UniProt Q59289); test: Exhaustive heparinase III digestion, products by MALDI-MS; assay type: biochemical, Flavobacterium heparinum
T5 construct: made in house
T5 sequence (Q59289 25-659): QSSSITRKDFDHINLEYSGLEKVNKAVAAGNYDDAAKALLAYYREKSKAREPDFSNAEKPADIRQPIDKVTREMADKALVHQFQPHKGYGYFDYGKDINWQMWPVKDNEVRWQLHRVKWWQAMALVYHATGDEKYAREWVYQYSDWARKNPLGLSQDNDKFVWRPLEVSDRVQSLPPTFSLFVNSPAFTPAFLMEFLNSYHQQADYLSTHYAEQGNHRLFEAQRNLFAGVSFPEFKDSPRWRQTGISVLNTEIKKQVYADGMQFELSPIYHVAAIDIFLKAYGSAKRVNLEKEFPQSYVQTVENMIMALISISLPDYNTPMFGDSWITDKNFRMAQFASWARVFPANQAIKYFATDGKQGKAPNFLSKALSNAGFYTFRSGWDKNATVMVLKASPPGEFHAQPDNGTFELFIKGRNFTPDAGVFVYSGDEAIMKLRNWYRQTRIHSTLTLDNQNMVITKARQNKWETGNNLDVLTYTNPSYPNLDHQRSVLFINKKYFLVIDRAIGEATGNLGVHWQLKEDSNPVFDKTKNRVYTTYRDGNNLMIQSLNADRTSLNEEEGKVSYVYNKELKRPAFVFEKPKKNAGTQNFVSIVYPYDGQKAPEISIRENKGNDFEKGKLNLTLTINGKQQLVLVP
Description: as §2, §3, §4

whole blood = test: HepTest
Description: Whole blood data were also used to determine the anticoagulant activity of AT-10. The assays, activated partial thromboplastin time (APTT) and prothrombin time (PT) was conducted in a manner similar to what has been previously reported (Dietrich, C. P., Paiva, J. F., Castro, R. A., Chavante, S. F., Jeske, W., Fareed, J., Gorin, P. A., Mendes, A. & Nader, H. B. (1999) Biochim Biophys Acta 1428, 273-83). APTT reagent was obtained from Organon Teknika (Durham, N.C.) and HepTest Reagent was obtained from Haemachem (St. Louis, Mo.).

human AT-III [2] = target: T1, human AT-III; details: Desai et al. 1998; cited from earlier work

Row | Compound | IC50 (factor Xa (FXa)) | Kd (human AT-III [1]; pH 6.0 I=0.025, read-out: KD for AT-III) | Kd (human AT-III [1]; pH 6.2, read-out: apparent KD for AT-III) | affinity for AT-III (in words) (human AT-III [1]; pH 7.4, I=0.15) | anti-IIa activity (in words) (Thrombin (FIIa)) | cleavage by heparinase II (heparinase II) | cleavage by heparinase I (heparinase I) | cleavage by heparinase III (heparinase III) | HepTest activity (in words) (whole blood) | affinity for AT-III, previous studies (in words) (human AT-III [2])
1 | CC(=O)NC1C(OC2C(C(=O)O)OC(OC3C(COS(=O)(=O)O)OC(O)C(NS(=O)(=O)O)C3OS(=O)(=O)O)C(O)C2O)OC(COS(=O)(=O)O)C(OC2OC(C(=O)O)C(OC3OC(COS(=O)(=O)O)C(OC4OC(C(=O)O)C(OC5OC(COS(=O)(=O)O)C(OC6OC(C(=O)O)C(OC7OC(COS(=O)(=O)O)C(OC8OC(C(=O)O)=CC(O)C8OS(=O)(=O)O)C(O)C7NS(=O)(=O)O)C(O)C6OS(=O)(=O)O)C(O)C5NS(=O)(=O)O)C(O)C4OS(=O)(=O)O)C(O)C3NS(=O)(=O)O)C(O)C2O)C1O [AT-10, ΔU2SHNS,6SI2SHNS,6SI2SHNS,6SIHNAc,6SGHNS,3S,6S] | 280 nM | 800 nM | 800 nM | very little affinity | neither the decasaccharide nor the pentasaccharide have significant anti-IIa activity | – | – | – | – | –
2 | CC(=O)NC1C(OC2C(C(=O)O)OC(OC3C(COS(=O)(=O)O)OC(O)C(NS(=O)(=O)O)C3OS(=O)(=O)O)C(O)C2O)OC(COS(=O)(=O)O)C(OC2OC(C(=O)O)C(OC3OC(COS(=O)(=O)O)C(OC4OC(C(=O)O)=CC(O)C4OS(=O)(=O)O)C(O)C3NS(=O)(=O)O)C(O)C2O)C1O [Hexa 1, ΔU2SHNS,6SIHNAc,6S, GHNS,3S,6S] | – | – | – | – | – | susceptible | not cleaved | susceptible | – | –
3 | CO[C@H]1O[C@H](COS(=O)(=O)O)[C@@H](O[C@@H]2O[C@@H](C(=O)O)[C@@H](O[C@H]3O[C@H](COS(=O)(=O)O)[C@@H](O[C@@H]4O[C@H](C(=O)O)[C@@H](O[C@H]5O[C@H](COS(=O)(=O)O)[C@@H](O)[C@H](O)[C@H]5NS(=O)(=O)O)[C@H](O)[C@H]4O)[C@H](OS(=O)(=O)O)[C@H]3NS(=O)(=O)O)[C@H](O)[C@H]2OS(=O)(=O)O)[C@H](O)[C@H]1NS(=O)(=O)O [Penta 1, HNS,6SGHNS,3S,6SI2SHNS,6S,OMe] | 39 nM | – | – | – | neither the decasaccharide nor the pentasaccharide have significant anti-IIa activity | cleave | cleave | not cleavable | significantly higher activity than the AT-10 decasaccharide | affinity similar to that of full length heparin
4 | CO[C@H]1O[C@H](COS(=O)(=O)O)[C@@H](O[C@@H]2O[C@@H](C(=O)O)[C@@H](O[C@H]3O[C@H](COS(=O)(=O)O)[C@@H](O[C@@H]4O[C@H](C(=O)O)[C@@H](O[C@H]5O[C@H](COS(=O)(=O)O)[C@@H](O)[C@H](O)[C@H]5NS(=O)(=O)O)[C@H](O)[C@H]4O)[C@H](O)[C@H]3NS(=O)(=O)O)[C@H](O)[C@H]2OS(=O)(=O)O)[C@H](O)[C@H]1NS(=O)(=O)O [Penta 2, HNS,6SGHNS,6SI2SHNS,6S,OMe] | – | – | – | – | – | efficiently cleave | efficiently cleave | efficiently cleave | – | –
5 | CC(=O)N[C@H]1[C@@H](O[C@H]2[C@H](O)[C@@H](O)[C@H](O[C@H]3[C@H](OS(=O)(=O)O)[C@@H](NS(=O)(=O)O)C(O)O[C@@H]3COS(=O)(=O)O)O[C@@H]2C(=O)O)O[C@H](COS(=O)(=O)O)[C@@H](O[C@@H]2OC(C(=O)O)=C[C@H](O)[C@H]2O)[C@@H]1O (stereo partly drawn) [ΔUHNAC,6SGHNS,3S,6S] | – | – | – | – | – | resistant to further degradation | resistant to further degradation | resistant to further degradation | – | –
